Measurements taken from BindingDB's records for doi:10.1002/bip.20588 (University of California Davis, 2006).
*1 amine or outer side, *2 acyl side, *3 side chain or, on linkers, in order; H or OH if unused. Where a SMILES comes first, the peptide text is derived from it. [ ]: non-standard residue; d: D form. The star is where a group is joined. ξ: configuration not given here. X5 = O=C(c1ccc(-c2ccc(N[*:1])cc2)o1)[*:2]; X14 = Cc1ccccc1NC(=O)Nc1ccc(N*)cc1; X1 = O=C(Cc1ccc(N[*:1])cc1)[*:2]; Aad = N[C@@H](CCCC(=O)O)C(=O)O; Ile(3ξ) = CCC(C)[C@H](N)C(=O)O; NH(2-Me-phenyl) = Cc1ccccc1N*; Heptanoyl = CCCCCCC(=O)*; Nle = CCCC[C@H](N)C(=O)O; Dap = NC[C@H](N)C(=O)O; CO = O=C([*:1])[*:2]; X10 = Brc1ccccc1N*

Biological target: Integrin alpha-4/beta-1 (Homo sapiens, UniProt P05556+P13612, T112H)
Assay: Jurkat Cell Adhesion Inhibition Assay
Experimental: Binding affinities (IC50) of the ligands were studied in a Jurkat cell adhesion assay by inhibiting the alpha-4/beta-1 mediated cell adhesion to CS-1 peptides. The 96-well plates were coated with neutravidin, followed by biotinconjugated CS-1 peptides. Jurkat cells with series dilutions of tested ligands in binding buffer were added and allowed to bind for 30 min. Bound cells were recorded using a 96-well plate reader at 570 nm. IC50 values were calculated from inhibition curves resulting from the concentration-dependent inhibition

Compound | IC50 [nM] | IC50 (pH 7.5, 22 °C) [nM]
CCCC[C@H](NC(=O)Cc1ccc(NC(=O)Nc2ccccc2Br)cc1)C(=O)N[C@@H](CC(=O)O)C(=O)N[C@H](C(=O)N1CCC[C@H]1C(N)=O)C(C)CC (stereo partly drawn) [(3S)-3-[(2S)-2-[1-(4-{[(2-bromophenyl)carbamoyl]amino}phenyl)acetamido]hexanamido]-3-{[(2S,3S)-1-[(2S)-2-carbamoylpyrrolidin-1-yl]-3-methyl-1-oxopentan-2-yl]carbamoyl}propanoic acid] ({X10-CO}-[X1][Nle]D[Ile(3ξ)]P-NH2) | 4.8 | –
CCCC[C@H](NC(=O)Nc1ccc(NC(=O)Nc2ccccc2C)cc1)C(=O)N[C@@H](CC(=O)O)C(=O)N[C@H](C(=O)N1CCC[C@H]1C(N)=O)C(C)CC (stereo partly drawn) [(3S)-3-{[(2S,3S)-1-[(2S)-2-carbamoylpyrrolidin-1-yl]-3-methyl-1-oxopentan-2-yl]carbamoyl}-3-[(2S)-2-{[(4-{[(2-methylphenyl)carbamoyl]amino}phenyl)carbamoyl]amino}hexanamido]propanoic acid] ({X14-CO}-[Nle]D[Ile(3ξ)]P-NH2) | 54 | –
CCCC[C@H](NC(=O)Cc1ccc(NC(=O)Nc2ccccc2C)cc1)C(=O)N[C@@H](CC(=O)O)C(=O)N[C@H](C(=O)N1CSC[C@H]1C(N)=O)C(C)CC (stereo partly drawn) [(3S)-3-{[(2S,3S)-1-[(4R)-4-carbamoyl-1,3-thiazolidin-3-yl]-3-methyl-1-oxopentan-2-yl]carbamoyl}-3-[(2S)-2-[1-(4-{[(2-methylphenyl)carbamoyl]amino}phenyl)acetamido]hexanamido]propanoic acid] | – | 3.1
CCCC[C@H](NC(=O)Cc1ccc(NC(=O)Nc2ccccc2C)cc1)C(=O)N[C@@H](CC(=O)O)C(=O)N[C@H](C(=O)N1CCC(C(N)=O)CC1)C(C)CC (stereo partly drawn) [(3S)-3-{[(2S,3S)-1-(4-carbamoylpiperidin-1-yl)-3-methyl-1-oxopentan-2-yl]carbamoyl}-3-[(2S)-2-[1-(4-{[(2-methylphenyl)carbamoyl]amino}phenyl)acetamido]hexanamido]propanoic acid] | – | 3.3
CCCCCCC(=O)NC[C@H](NC(=O)Cc1ccc(NC(=O)Nc2ccccc2C)cc1)C(=O)N[C@@H](CC(=O)O)C(=O)N[C@H](C(=O)N1CCC[C@H]1C(N)=O)C(C)CC (stereo partly drawn) [(3S)-3-{[(2S,3S)-1-[(2S)-2-carbamoylpyrrolidin-1-yl]-3-methyl-1-oxopentan-2-yl]carbamoyl}-3-[(2S)-3-heptanamido-2-[1-(4-{[(2-methylphenyl)carbamoyl]amino}phenyl)acetamido]propanamido]propanoic acid] ({NH(2-Me-phenyl)-CO}-[X1][Dap](Heptanoyl)D[Ile(3ξ)]P-NH2) | 312 | –

Next, values leading:

IC50 [nM] | IC50 (pH 7.5, 22 °C) [nM] | Compound
3.4 | – | CCCC[C@H](NC(=O)Cc1ccc(NC(=O)Nc2ccccc2C)cc1)C(=O)N[C@@H](CCCC(=O)O)C(=O)N[C@H](C(=O)N1CCC[C@H]1C(N)=O)C(C)CC (stereo partly drawn) [(5S)-5-{[(2S,3S)-1-[(2S)-2-carbamoylpyrrolidin-1-yl]-3-methyl-1-oxopentan-2-yl]carbamoyl}-5-[(2S)-2-[1-(4-{[(2-methylphenyl)carbamoyl]amino}phenyl)acetamido]hexanamido]pentanoic acid] ({NH(2-Me-phenyl)-CO}-[X1][Nle][Aad][Ile(3ξ)]P-NH2)
340 | – | CCCC[C@H](NC(=O)c1ccc(-c2ccc(NC(=O)Nc3ccccc3C)cc2)o1)C(=O)N[C@@H](CC(=O)O)C(=O)N[C@H](C(=O)N1CCC[C@H]1C(N)=O)C(C)CC (stereo partly drawn) [(3S)-3-{[(2S,3S)-1-[(2S)-2-carbamoylpyrrolidin-1-yl]-3-methyl-1-oxopentan-2-yl]carbamoyl}-3-[(2S)-2-{[5-(4-{[(2-methylphenyl)carbamoyl]amino}phenyl)furan-2-yl]formamido}hexanamido]propanoic acid] ({NH(2-Me-phenyl)-CO}-[X5][Nle]D[Ile(3ξ)]P-NH2)
